Results taken from patent US20070167438A1, “Treatment of substance abuse” (Wyeth, priority 2006, published 2007).

System: Rats
Assay: Open field locomotor activity (distance moved, zones crossed) with or without cocaine
Format: in vivo
Conditions: open field 1 hour after dosing, five minute test
Method: Using (9aR,12aS)-4,5,6,7,9,9a,10,11,12,12a-decahydrocyclopenta[c][1,4]diazepino[6,7,1-ij]quinoline hydrochloride (Compound 1) as an example, the Rats were dosed either with vehicle or with cocaine in the presence or absence of Compound 1 (1.7 mg/kg. sc). One hour after dosing (i.p. & s.c.), rats were put in a open field, where distance moved and zones crossed were recorded by the ethovision program.
Animals were brought to the lab room 1 hour before the start of the experiment. Rats were injected with compound(s) 1 hour before being placed in the open field. Rats were then placed in open field, and the test lasted for five minutes.

SMILES: Cl.c1cc2c3c(c1)[C@H]1CCC[C@H]1CN3CCNC2 [Compound 1, (9aR,12aS)-4,5,6,7,9,9a,10,11,12,12a-decahydrocyclopenta[c][1,4]diazepino[6,7,1-ij]quinoline hydrochloride]
- reversal of the hyperactivity produced by cocaine (Compound 1 1.7 mg/kg sc + cocaine 3 mg/kg ip): completely reversed
- effect on locomotor activity alone (Compound 1 1.7 mg/kg sc + vehicle): no effect
